Test results reported in patent publication US10010525B2, “Methods of inducing anesthesia” (The Regents of the University of California, priority 2012, dated 2018).

Key:
[1] = target: T1, NMDA (NR1/NR2A) receptors (Rattus norvegicus, UniProt P35439+Q00959); assay: NMDA receptor two-electrode voltage clamp in oocytes at saturated drug concentration; type: cell-based; details: for NMDA % Direct Effect: drug response without receptor agonist; for NMDA % Direct Effect / NMDA % Agonist Effect: percent of control agonist peak, mean ±SEM, 5-6 oocytes, saturated drug; for NMDA % Agonist Effect: drug with glutamate and glycine; for NMDA Drug Response: drug+agonist versus control agonist peak; for NMDA receptor modulation (in words): saturating aqueous concentration; for direct effect on NMDA receptors (in words): without glutamate and glycine agonist
T1 construct: expressed in transfected cells; host or cells: Xenopus laevis oocytes (RNA injection, 1:1)
T1 sequence (Q00959 23-1464, other chains not shown): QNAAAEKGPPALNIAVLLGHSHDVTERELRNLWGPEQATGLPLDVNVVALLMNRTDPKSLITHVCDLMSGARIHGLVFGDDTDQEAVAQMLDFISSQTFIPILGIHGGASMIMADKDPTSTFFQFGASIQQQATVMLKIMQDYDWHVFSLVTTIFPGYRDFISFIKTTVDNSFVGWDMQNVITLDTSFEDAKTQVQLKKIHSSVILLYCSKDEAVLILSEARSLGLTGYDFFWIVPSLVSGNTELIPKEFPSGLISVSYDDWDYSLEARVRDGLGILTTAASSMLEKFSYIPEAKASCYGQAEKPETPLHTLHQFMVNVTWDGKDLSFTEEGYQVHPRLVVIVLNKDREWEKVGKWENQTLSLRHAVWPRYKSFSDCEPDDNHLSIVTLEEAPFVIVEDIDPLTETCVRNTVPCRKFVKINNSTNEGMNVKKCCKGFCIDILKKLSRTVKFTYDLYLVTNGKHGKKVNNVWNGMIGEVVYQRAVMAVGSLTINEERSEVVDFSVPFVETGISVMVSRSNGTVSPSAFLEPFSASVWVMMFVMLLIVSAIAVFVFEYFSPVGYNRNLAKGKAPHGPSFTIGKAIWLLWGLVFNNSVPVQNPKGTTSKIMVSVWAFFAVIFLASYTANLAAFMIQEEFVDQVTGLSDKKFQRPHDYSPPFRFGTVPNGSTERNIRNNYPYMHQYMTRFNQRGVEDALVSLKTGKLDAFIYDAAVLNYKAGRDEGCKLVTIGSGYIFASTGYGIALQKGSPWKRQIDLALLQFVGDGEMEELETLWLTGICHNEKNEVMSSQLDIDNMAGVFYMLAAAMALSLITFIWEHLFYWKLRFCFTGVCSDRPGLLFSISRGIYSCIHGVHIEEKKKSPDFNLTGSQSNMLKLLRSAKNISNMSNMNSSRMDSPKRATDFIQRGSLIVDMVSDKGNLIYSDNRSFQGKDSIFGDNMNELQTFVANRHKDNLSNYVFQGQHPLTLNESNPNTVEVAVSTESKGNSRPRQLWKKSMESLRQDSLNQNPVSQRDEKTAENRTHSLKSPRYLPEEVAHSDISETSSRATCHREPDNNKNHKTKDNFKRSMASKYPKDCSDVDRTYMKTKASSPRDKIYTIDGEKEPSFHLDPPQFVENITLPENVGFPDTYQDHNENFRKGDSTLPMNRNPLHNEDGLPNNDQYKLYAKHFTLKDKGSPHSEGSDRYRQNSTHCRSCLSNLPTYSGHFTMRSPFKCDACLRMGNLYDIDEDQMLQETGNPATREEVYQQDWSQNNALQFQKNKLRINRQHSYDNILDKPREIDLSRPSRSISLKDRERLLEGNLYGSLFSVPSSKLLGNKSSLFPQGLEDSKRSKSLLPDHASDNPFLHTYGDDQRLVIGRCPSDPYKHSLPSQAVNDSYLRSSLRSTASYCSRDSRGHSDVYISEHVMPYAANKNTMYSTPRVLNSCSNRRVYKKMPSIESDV
Excerpt: (§1) GABAA (α1β2γ2s) or NMDA (NR1/NR2A) receptors were expressed in oocytes and studied using standard two-electrode voltage clamp techniques. Hydrocarbons from 14 different organic functional groups were studied at saturated concentrations, and compounds within each group differed only by the carbon number at the ω-position or within a saturated ring. An effect on GABAA or NMDA receptors was defined as a 10% or greater reversible current change from baseline that was statistically different from zero.
(§2) An ovary from tricaine-anesthetized Xenopus laevis frogs was surgically removed using a protocol approved by the Institutional Animal Care and Use Committee at the University of California, Davis. Following manual disruption of the ovarian lobule septae, the ovary was incubated in 0.2% Type I collagenase (Worthington Biochemical, Lakewood, N.J.) to defolliculate oocytes which were washed and stored in fresh and filtered modified Barth's solution composed of 88 mM NaCl, 1 mM KCl, 2.4 mM NaHCO3, 20 mM HEPES, 0.82 mM MgSO4, 0.33 mM Ca(NO3)2, 0.41 mM CaCl2, 5 mM sodium pyruvate, gentamycin, penicillin, streptomycin, and corrected to pH=7.4. All salts and antibiotics were A.C.S. grade (Fisher Scientific, Pittsburgh, Pa.).
(§3) Clones used were provided as a gift from Dr. R. A. Harris (University of Texas, Austin) and were sequenced and compared to references in the National Center for Biotechnology Information database to confirm the identity of each gene. GABAA receptors were expressed using clones for the human GABAA α1 and the rat GABAA β2 and γ2s subunits in pCIS-II vectors. […] In separate oocytes, glutamate receptors were expressed using rat NMDA NR1 clones in a pCDNA3 vector and rat NMDA NR2A clones in a Bluescript vector. RNA encoding each subunit was prepared using a commercial transcription kit (T7 mMessage mMachine, Ambion, Austin, Tex.) was mixed in a 1:1 ratio, and 1-10 ng of total RNA was injected into oocytes and studied 1-2 days later.
Briefly, baseline perfusion solutions were the same as for GABAA with the substitution of equimolar BaCl2 for calcium salts and the addition of 0.1 mM EGTA; this constituted barium frog Ringer's solution (BaFR). Agonist solutions for NMDA studies also contained 0.1 mM glutamate (E) and 0.01 mM glycine (G) to constitute a BaFREG solution.
The syringe pump and perfusion chamber apparatus as well as the clamp holding potential and baseline-agonist exposure protocols were identical to that described for the GABAA studies. The same test compounds, concentrations, and preparative methods were used in NMDA voltage clamp studies as in the GABAA voltage clamp studies (Table 2).
(§4) Modulating drug responses were calculated as the percent of the control (baseline) peak as follows: 100·ID/IB, where ID and IB were the peak currents measured during agonist+drug and agonist baseline perfusions, respectively. When present, direct receptor activation by a drug was similarly calculated as a percent of the agonist response. […] A lack of receptor response (cut-off) was defined as a<10% change from baseline current that was statistically indistinguishable from zero using a two-tailed Student t-test.

[2] = target: T2, GABAA (α1β2γ2s) receptors (UniProt P14867+P18508+P63138); assay: GABAA receptor two-electrode voltage clamp in oocytes at saturated drug concentration; type: cell-based, human α1, rat β2 and γ2s; details: for GABAA % Direct Effect: drug response without receptor agonist; for GABAA % Direct Effect / GABAA % Agonist Effect: percent of control agonist peak, mean ±SEM, 5-6 oocytes, saturated drug; for GABAA % Agonist Effect: drug with γ-aminobutyric acid; for GABAA Drug Response: drug+agonist versus control agonist peak
T2 construct: expressed in transfected cells; host or cells: Xenopus laevis oocytes (intranuclear plasmid injection, α1:β2:γ2 = 1:1:10)
T2 sequence (P14867 28-456): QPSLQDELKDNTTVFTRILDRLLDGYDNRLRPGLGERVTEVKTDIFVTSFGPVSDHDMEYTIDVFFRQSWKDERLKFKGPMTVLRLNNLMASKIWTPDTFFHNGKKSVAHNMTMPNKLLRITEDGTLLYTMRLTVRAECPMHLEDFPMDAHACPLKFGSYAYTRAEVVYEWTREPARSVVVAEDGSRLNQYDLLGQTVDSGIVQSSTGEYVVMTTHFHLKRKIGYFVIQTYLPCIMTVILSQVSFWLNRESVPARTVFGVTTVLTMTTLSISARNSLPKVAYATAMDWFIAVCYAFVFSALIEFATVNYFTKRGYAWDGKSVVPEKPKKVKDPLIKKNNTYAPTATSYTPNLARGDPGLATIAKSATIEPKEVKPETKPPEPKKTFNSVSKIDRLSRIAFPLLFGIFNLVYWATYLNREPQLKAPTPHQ
T2 sequence (P63138 25-474 limits assumed): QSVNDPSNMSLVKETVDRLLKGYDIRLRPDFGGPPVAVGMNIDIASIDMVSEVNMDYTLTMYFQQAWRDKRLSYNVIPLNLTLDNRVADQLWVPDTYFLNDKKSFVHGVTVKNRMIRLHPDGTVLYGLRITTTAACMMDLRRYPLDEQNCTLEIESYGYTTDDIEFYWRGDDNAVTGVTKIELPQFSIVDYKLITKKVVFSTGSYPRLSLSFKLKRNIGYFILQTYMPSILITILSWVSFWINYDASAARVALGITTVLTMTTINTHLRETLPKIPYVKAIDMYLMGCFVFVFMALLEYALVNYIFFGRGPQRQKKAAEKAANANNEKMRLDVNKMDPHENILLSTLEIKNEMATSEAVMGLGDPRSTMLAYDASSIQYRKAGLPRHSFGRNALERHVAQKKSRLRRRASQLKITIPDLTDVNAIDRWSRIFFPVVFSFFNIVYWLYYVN
T2 sequence (P18508 39-466): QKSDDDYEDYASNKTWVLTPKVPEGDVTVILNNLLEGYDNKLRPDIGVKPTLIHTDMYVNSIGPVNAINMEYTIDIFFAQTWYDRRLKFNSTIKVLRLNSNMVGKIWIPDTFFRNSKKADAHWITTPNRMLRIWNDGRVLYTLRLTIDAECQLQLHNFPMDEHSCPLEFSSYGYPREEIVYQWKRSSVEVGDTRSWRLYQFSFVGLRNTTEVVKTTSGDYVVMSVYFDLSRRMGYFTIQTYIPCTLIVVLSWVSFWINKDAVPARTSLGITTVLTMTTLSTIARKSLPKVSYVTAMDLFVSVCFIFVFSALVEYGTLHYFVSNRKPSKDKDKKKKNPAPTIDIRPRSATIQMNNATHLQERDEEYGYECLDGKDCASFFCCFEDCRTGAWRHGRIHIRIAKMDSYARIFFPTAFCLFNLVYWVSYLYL
Excerpt: as §1, §2, §3
Oocytes were studied in a 250 μL linear-flow perfusion chamber with solutions administered by syringe pump at 1.5 ml/min with gastight glass syringes and Teflon tubing. Oocyte GABAA currents were studied using standard two-electrode voltage clamping techniques at a holding potential of […] using a 250 μL channel linear-flow perfusion chamber with solutions administered by syringe pump at 1.5 mL/min.
After FR perfusion for 5 min, oocytes were exposed to 30 sec FR-GABA followed by another 5 min FR washout; this was repeated until stable GABAA-elicited peaks were obtained. Next, FR containing a saturated solution of the study drug (Table 2)—or for gaseous study compounds a vapor pressure equal to 90% of barometric pressure with balance oxygen—was used to perfuse the oocyte chamber for 2 min followed by perfusion with a FR-GABA solution containing the identical drug concentration for 30 sec.
as §4

| Compound | NMDA % Direct Effect [1] | NMDA % Agonist Effect [1] | NMDA Drug Response [1] | GABAA % Direct Effect [2] | GABAA % Agonist Effect [2] | GABAA Drug Response [2] | NMDA receptor modulation (in words) [1] | GABAA receptor modulation (in words) ([2]; saturating aqueous concentration) | NMDA receptor current inhibition ([1]; hydrocarbons prior to the cut-off, saturated) | direct effect on NMDA receptors (in words) [1] |
| --- | --- | --- | --- | --- | --- | --- | --- | --- | --- | --- |
| CCc1cccc(CC)c1 [1,3-diethylbenzene] | none | 101 ± 2% | 0 (no response (0) for drug+agonist responses that differ by <10% from the control agonist peak) | none | 305 ± 24% | + (potentiation (+) for drug+agonist responses greater than the control agonist peak) | – | – | – | – |
| Cc1cccc(C)c1 [1,3-dimethylbenzene] | none | 58 ± 3% | – | none | 366 ± 21% | + (potentiation (+) for drug+agonist responses greater than the control agonist peak) | – | – | – | – |
| CCCCCCSCC [1-(ethylthio)-hexane] | none | 87 ± 1% | – | none | 350 ± 57% | + (potentiation (+) for drug+agonist responses greater than the control agonist peak) | – | – | – | – |
| CCCCCCCCSCC [1-(ethylthio)-octane] | none | 101 ± 1% | 0 (no response (0) for drug+agonist responses that differ by <10% from the control agonist peak) | none | 120 ± 3% | + (potentiation (+) for drug+agonist responses greater than the control agonist peak) | – | – | – | – |
| OCC(F)(F)C(F)(F)C(F)(F)C(F)(C(F)(F)F)C(F)(F)F [1-Hexanol, 2,2,3,3,4,4,5,6,6,6-decafluoro-5-(trifluoromethyl)-] | – | – | – | – | – | – | weak NMDA receptor antagonist | GABA-A receptor agonist | – | – |
| CCCCCCCCCCO [1-decanol] | none | 70 ± 3% | – | none | 386 ± 20% | + (potentiation (+) for drug+agonist responses greater than the control agonist peak) | – | – | – | – |
| CCCCCCCCCCCCO [1-dodecanol] | none | 98 ± 1% | 0 (no response (0) for drug+agonist responses that differ by <10% from the control agonist peak) | none | 177 ± 4% | + (potentiation (+) for drug+agonist responses greater than the control agonist peak) | – | – | – | – |
| CCCCCCCCCCCCCCCCCCCCN [1-eicosanamine] | none | 108 ± 1% | 0 (no response (0) for drug+agonist responses that differ by <10% from the control agonist peak) | none | 166 ± 7% | + (potentiation (+) for drug+agonist responses greater than the control agonist peak) | – | – | – | – |
| CCCCCCCCF [1-fluoroctane] | none | 98 ± 1% | 0 (no response (0) for drug+agonist responses that differ by <10% from the control agonist peak) | none | 182 ± 18% | + (potentiation (+) for drug+agonist responses greater than the control agonist peak) | – | – | – | – |
| CCCCCCF [1-fluorohexane] | none | 101 ± 1% | 0 (no response (0) for drug+agonist responses that differ by <10% from the control agonist peak) | 11 ± 4% | 207 ± 13% | + (potentiation (+) for drug+agonist responses greater than the control agonist peak) | – | – | – | – |
| CCCCCF [1-fluoropentane] | none | 76 ± 2% | – | none | 539 ± 35% | + (potentiation (+) for drug+agonist responses greater than the control agonist peak) | – | – | – | – |
| C#CCCCCC [1-heptyne] | none | 68 ± 10% | – | none | 172 ± 8% | + (potentiation (+) for drug+agonist responses greater than the control agonist peak) | – | – | – | – |
| CCCCCCS [1-hexanethiol] | none | 102 ± 3% | 0 (no response (0) for drug+agonist responses that differ by <10% from the control agonist peak) | 8 ± 2% | 290 ± 41% | + (potentiation (+) for drug+agonist responses greater than the control agonist peak) | did not | – | – | – |
| C=CCCCC [1-hexene] | none | 97 ± 0% | 0 (no response (0) for drug+agonist responses that differ by <10% from the control agonist peak) | none | 132 ± 2% | + (potentiation (+) for drug+agonist responses greater than the control agonist peak) | – | – | – | – |
| C#CCCCC [1-hexyne] | none | 41 ± 6% | – | 5 ± 2% | 418 ± 21% | + (potentiation (+) for drug+agonist responses greater than the control agonist peak) | – | – | – | – |
| CCCCCCCCCCCCCCCCCCN [1-octadecanamine] | none | 73 ± 4% | – | none | 146 ± 5% | + (potentiation (+) for drug+agonist responses greater than the control agonist peak) | – | – | – | – |
| C#CCCCCCC [1-octyne] | none | 96 ± 2% | 0 (no response (0) for drug+agonist responses that differ by <10% from the control agonist peak) | none | 259 ± 11% | + (potentiation (+) for drug+agonist responses greater than the control agonist peak) | – | – | – | – |
| CCCCCS [1-pentanethiol] | none | 85 ± 4% | – | 22 ± 8% | 466 ± 57% | + (potentiation (+) for drug+agonist responses greater than the control agonist peak) | inhibited NMDA receptors | – | 15% | – |
| C=CCCC [1-pentene] | none | 69 ± 1% | – | 2 ± 3% | 453 ± 38% | + (potentiation (+) for drug+agonist responses greater than the control agonist peak) | – | – | – | – |
| CCCCCCCCCCCO [1-undecanol] | none | 101 ± 2% | 0 (no response (0) for drug+agonist responses that differ by <10% from the control agonist peak) | none | 181 ± 13% | + (potentiation (+) for drug+agonist responses greater than the control agonist peak) | – | – | – | – |
| CN1CCOCC1 [4-methylmorpholine] | – | – | – | – | – | – | – | – | – | direct activation of NMDA receptors |
| N-methylpiperadine | – | – | – | – | – | – | – | – | – | direct activation of NMDA receptors |
